Experimental data reported in patent publication US8283473B2, “Platinum complex compound and utilization of the same” (Yakult Honsha Co., Ltd, priority 2008, dated 2012).

system: H460 non-small cell lung cancer cells; assay: In vitro cytotoxicity (inhibitory activity on cancer cell proliferation), MTT formazan absorbance assay; type: cell-based; details: Table 1; 24 hours incubation at 37° C., then 4 hours with tetrazolium dye; absorbance at 550 nm; read-out: IC50 value of platinum complex compounds for H460 non-small cell lung cancer cells
Method: <Investigation of the In Vitro Cytotoxicity (Inhibitory Activity on Cancer Cell Proliferation) for H460 Non-Small Cell Lung Cancer Cells>
On the day prior to the day of agent addition, H460 non-small cell lung cancer cells were plated onto 24-well flatbottom microplates at 12,000 to 20,000 cells/well. An aqueous solution was prepared for each sample (refer to the sample numbers in Table 1) by dissolving the sample in Q-H2O water to a concentration of 100 μM. These aqueous solutions were diluted to provide solutions with various concentrations, and 1 mL of the particular dilution was introduced into each well. After incubation of the microplate for 24 hours at 37° C., […] a 2,5-diphenyl-3-(4,5-dimethylthiazol-2-yl)tetrazolium bromide (MIT) solution (5 mg/mL) was added to each well and incubation was continued for an additional 4 hours at 37° C. 200 μL dimethyl sulfoxide (DMSO) was added to each well in order to dissolve the formazan produced and precipitated as a result of reduction of the MIT. The absorbance at 550 nm of each well was measured using a microplate reader.
The absorbance of each well was measured three times and each experiment was repeated at least three times. The IC50 value was calculated as the concentration that provided a 50% formazan production with reference to the control (no agent addition).

Row | Compound | IC50 [µM]
1 | N.N.[Cl][Pt][Cl] [sample 3, cis-diamminedichloridoplatinum(II)] | 23

same assay, conditions: Table 2; same procedure, 24 hours incubation at 37° C.; absorbance at 550 nm; read-out: IC50 value of platinum complex compounds for H460 non-small cell lung cancer cells

Row | Compound | IC50 [µM]
2 | [{cis-Pt(NH3)2}2(μ-OH)(μ-tetrazolato-N2,N3)](ClO4)2 [sample 5] | 8.3
3 | [{cis-Pt(NH3)2}2(μ-OH)(μ-5-methyltetrazolato-N2,N3)](NO3)2 [sample 6] | 20
4 | [{cis-Pt(NH3)2}2(μ-OH)(μ-tetrazolato-5-ethylacetate-N2,N3)](NO3)2 [sample 7] | 22
5 | [{cis-Pt(NH3)2}2(μ-OH)(μ-pyrazolato)](NO3)2 [sample 8] | > 100
6 | O=[N+]([O-])O.O=[N+]([O-])[O-].[NH2][Pt]1([NH2])[O][Pt]([NH2])([NH2])[n+]2ncc[n]21 [sample 9, [{cis-Pt(NH3)2}2(μ-OH)(μ-1,2,3-triazolato-N1,N2)](NO3)2] | 62
7 | N.N.[Cl][Pt][Cl] [sample 3, cis-diamminedichloridoplatinum(II)] | 23
8 | [{cis-Pt(NH3)2}2(μ-OH)(μ-tetrazolato-N1,N2)](ClO4)2 [sample 4] | 21
